In brackets after ≈: the same amount, converted by molar mass. A value given as a limit tells only on which side of the number the result lay.

The subject of experiment [1] is Streptococcus pneumoniae. Put plainly: Antibacterial activity against Streptococcus pneumoniae KU197. It counts as functional.
Experiment [2] has as its target T1, Enoyl-(Acyl-carrier-protein) reductase (Streptococcus pneumoniae, UniProt Q9FBC5).
T1 sequence (Q9FBC5 whole entry): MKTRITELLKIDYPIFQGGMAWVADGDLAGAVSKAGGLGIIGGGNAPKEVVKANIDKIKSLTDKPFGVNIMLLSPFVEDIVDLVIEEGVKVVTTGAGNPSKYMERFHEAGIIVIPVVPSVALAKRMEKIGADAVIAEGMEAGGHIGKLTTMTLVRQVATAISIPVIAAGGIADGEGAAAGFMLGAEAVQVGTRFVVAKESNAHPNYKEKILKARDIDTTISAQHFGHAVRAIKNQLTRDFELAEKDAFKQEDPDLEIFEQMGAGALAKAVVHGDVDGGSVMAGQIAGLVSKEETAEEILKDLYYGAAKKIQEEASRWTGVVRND
Nature of the experiment: Inhibition of Streptococcus pneumoniae KU197 FabK.

Experiment [3] is described as follows: Inhibition of Escherichia coli FabI.

In experiment [1], `CS(=O)(=O)c1ccc2nc(NC(=O)NCc3cccnc3)sc2c1` gave an MIC above 32 µg/mL. In addition, the IC50 in experiment [2] was 24 µM.

With `O=C(Nc1nc2ccccc2s1)OCc1nc2ccccc2[nH]1`, the MIC in experiment [1] was above 32 µg/mL. The same molecule registered an IC50 in experiment [2] above 32 µM.

`COc1cccc2sc(NC(=O)NCc3nc4ccccc4[nH]3)nc12`: the IC50 in experiment [3] and in experiment [2] was above 32 µM each time.

With `COc1ccc2sc(NC(=O)NCc3nc4ccccc4[nH]3)nc2c1`, the IC50 in experiment [3] and in experiment [2] was above 32 µM in each case.

In experiment [1], `CS(=O)(=O)c1ccc2nc(NC(=O)NCc3nc4ccccc4[nH]3)sc2c1` came in with a minimal inhibitory concentration (MIC) of 4 µg/mL (≈ 9.96 µM). The results for the half-maximal inhibitory concentration (IC50) in experiment [3] and in experiment [2] were above 32 µM and 0.76 µM, respectively.

On to `CS(=O)(=O)c1ccc2nc(NC(=O)NCc3nc(-c4ccccc4)c[nH]3)sc2c1`, for which the minimum inhibitory concentration (MIC) in experiment [1] was found to be 0.5 µg/mL (≈ 1.17 µM). Also, the IC50 was above 32 µM in experiment [3] and 0.14 µM in experiment [2].

Take `O=C(CSc1nc2ccccc2[nH]1)Nc1nc2ccc(C(=O)O)cc2s1`: the MIC in experiment [1] was above 32 µg/mL. The same molecule registered a concentration for half-maximal inhibition (IC50) in experiment [2] above 32 µM.

Regarding `O=C(CSc1nc2ccccc2[nH]1)Nc1nc2ccccc2s1`, the MIC in experiment [1] is above 32 µg/mL. In addition, the half-inhibitory concentration (IC50) in experiment [2] was above 32 µM.

Molecule `O=C(NCc1nc2ccccc2[nH]1)Nc1nc2ccccc2s1` returned an MIC in experiment [1] of 32 µg/mL (≈ 99 µM). The values for the 50% inhibitory concentration (IC50) in experiment [3] and in experiment [2] were above 32 µM and 28 µM, respectively.

With `CS(=O)(=O)c1ccc2nc(NC(=O)NCc3cccs3)sc2c1`, the minimal inhibitory concentration (MIC) in experiment [1] is above 32 µg/mL. Moreover, inhibition in experiment [2] was half-maximal at 24 µM (IC50).

On to `O=C(O)CSc1nc2ccccc2[nH]1`, for which, in experiment [2], the IC50 is above 32 µM.

For the molecule `Nc1nc2ccc(C(=O)O)cc2s1`, the IC50 in experiment [2] is above 32 µM.

`COc1ccc2nc(NC(=O)NCc3nc4ccccc4[nH]3)sc2c1` displayed an MIC in experiment [1] of 16 µg/mL (≈ 45.3 µM). The half-maximal inhibitory concentration (IC50) in experiment [3] was above 32 µM; in experiment [2], 7.6 µM.

Source of the values: ChEMBL document CHEMBL1140684, “Phenylimidazole derivatives as new inhibitors of bacterial enoyl-ACP reductase FabK” (Bioorg Med Chem Lett, 2007).
